Here are results for 24 compounds from patent US20250270202A1, “SUBSTITUTED 4-AMINOISOINDOLINE COMPOUND, PREPARATION METHOD THEREFOR, PHARMACEUTICAL COMPOSITION THEREOF, AND USE THEREOF” (SHANGHAI INSTITUTE OF MATERIA MEDICA, CHINESE ACADEMY OF …, priority 2022, published 2025).

Read-outs that look alike come from different tables or passages of the source.

What all share (type): cell-based
The subject of one test is MV-4-11 cells. Put plainly: Inhibition of MV-4-11 cell proliferation (MTS, 7 days). The settings on record: Homo sapiens. As to the method: MV-4-11 cells were cultured in IMDM with 10% fetal bovine serum, collected, and diluted to the appropriate cell concentration for a 7-day treatment period. A 96-well plate was used, and 180 μL of cell suspension was added to each well, resulting in a cell count of 2,000 per well. For the control wells, 20 μL of DMSO at a final concentration of 0.2% was added. The compounds were diluted from a 10 mM stock solution in a five-fold gradient, and 20 μL was added to the compound wells (with a final DMSO concentration of 0.2%). The cells were incubated in a 37° C., 5% CO2 incubator for 7 days. After preparing the reaction solution using the MTS reagent kit (Promega, G5430), 20 μL was added to each well, and the cells were incubated in the incubator for 3-4 hours. The absorbance at 490 nm was measured using a microplate reader, with the absorbance at 690 nm as the background value. The final data was calculated as OD490-OD690. The inhibition rate of the compounds was calculated using the formula: […]
The IC50 values for proliferation inhibition were calculated using GraphPad Prism 5.0. The experiments were repeated three times, with three parallel experiments for each, and the mean and standard deviation were calculated.
The cell activity test results are shown in Table 3: A indicates IC50<1 μM, B indicates 1 µM≤IC50≤20 μM, and C indicates IC50>20 μM.

For another test, the system named is Mino cells. Kind of test: Inhibition of cell proliferation of Mino cells (MTS, 3 days). The settings on record: Homo sapiens, MINO. The procedure:
Mino cells were cultured with RPMI-1640 medium supplemented with 15% fetal bovine serum, and collected. The cell concentration was diluted according to a 3-day treatment period, and 90 μL of the cell suspension was added to each well of a 96-well plate, resulting in 8000 cells per well. For control wells, 10 μL of DMSO at a final concentration of 0.2% was added. The compounds were diluted in a 5-fold gradient from a 10 mM stock solution, and 10 μL of each compound solution was added to the experimental wells (with a final DMSO concentration of 0.2%). The cells were incubated in a 37° C., 5% CO2 incubator for 3 days. After preparing the reaction mixture using the MTS reagent kit (Promega, G5430), 20 μL was added to each well, and the cells were incubated for 3-4 hours at 37° C., 5% CO2.
The absorbance at 490 nm was read using a microplate reader, with the absorbance at 690 nm used as the background. The final raw data was calculated as OD490-OD690. The inhibition rate of the compounds was calculated using the formula: Inhibition rate=(OD DMSO−OD compound)/(OD DMSO−OD blank)×100%. The IC50 values for cell proliferation inhibition of the compounds were fitted using GraphPad Prism 5.0. The experiment was repeated three times, with the average and standard deviation calculated from three parallel experiments each time.

For the next test, the system named is MM.1S cells. Kind of test: Effect of the compound on MM.1S cell proliferation (MTS, 7 days). The note with it: Homo sapiens, MM1.S. The procedure: MM.1S cells were cultured in 1640 medium supplemented with 10% fetal bovine serum, then collected and diluted to the desired cell concentration after 7 days of treatment. A total of 180 μL of cell suspension was added to each well in a 96-well cell plate, ensuring 20,000 cells per well. For the control group, 20 μL of 0.2% DMSO was added to each well. Compounds were diluted in a 5-step gradient from a 10 mM stock solution, and 20 μL of each dilution was added to the compound-containing wells (with a final DMSO concentration of 0.2%). The cells were incubated in a 37° C., 5% CO2 incubator for 7 days. Afterward, 20 μL of the MTS reagent (Promega, G5430) was added to each well, followed by incubation for 3-4 hours in a 37° C., 5% CO2 incubator. Absorbance at 490 nm was measured using a microplate reader, with 690 nm absorbance as the background. The final raw data was calculated as OD490-OD690. The compound inhibition rate was calculated using the formula: […]
The IC50 for the compound's proliferative inhibition was fitted using GraphPad Prism 5.0. The experiment was repeated three times, and the average and standard deviation were calculated using three parallel experiments per trial.

The mark [1] stands for this setting: MV4-11, 168 h, 7 days, MTS, Table 3, read-out: MV-4-11 Cells Inhibition Activity IC50.
[2] abbreviates: 72 h, 3 days, MTS, Table 2, read-out: Mino Cells Inhibition Activity IC50.
[3] abbreviates: 168 h, 7 days, MTS, Table 1, read-out: MM.1S Cells Inhibition Activity IC50.
[4] abbreviates: Table 4, read-out: Inhibitory Activity of Compounds on Cell Proliferation Mino IC50.
[5] abbreviates: Table 4, read-out: Inhibitory Activity of Compounds on Cell Proliferation MM.1S IC50.
The mark [6] stands for this setting: MV4-11, Table 4, values in nM, read-out: Inhibitory Activity of Compounds on Cell Proliferation MV-4-11 IC50.

For the compound `O=C1CCC(N2C(=O)c3cccc(NCc4cnc(-c5cccc(F)c5)s4)c3C2=O)C(=O)N1` (centres unmarked) [Example 28], the IC50 in the test with MV-4-11 cells (setting [1]) was 1 to 20 µM; in the test with Mino cells (setting [2]) it was more than 120 nM; in the test with MM.1S cells (setting [3]), 30 to 150 nM.
Take `O=CN(Cc1cnc(-c2ccc(Cl)cc2)o1)c1cccc2c1C(=O)N(C1CCC(=O)NC1=O)C2=O` (centres unmarked) [Example Ctrl-2, N-((2-(4-chlorophenyl)oxazol-5-yl)methyl)-N-(2-(2,6-dioxopiperidin-3-yl)-1,3-dioxoisoindolin-4-yl) formamide, reference compound]: the IC50 is 1 to 20 µM with MV-4-11 cells (MV4-11, Table 4, values in μM, read-out: Inhibitory Activity of Compounds on Cell Proliferation MV-4-11 IC50); more than 120 nM with Mino cells (setting [4]); more than 30 nM in the test with MM.1S cells (setting [5]).
As to `O=C1CCC(N2C(=O)c3cccc(NCc4ncc(-c5ccccc5F)o4)c3C2=O)C(=O)N1` (centres unmarked) [Example 95, 2-(2,6-Dioxopiperidine-3-yl)-4-(((5-(2-Fluorophenyl)oxazol-2-yl)methyl)amino)isoindoline-1,3-dione], the IC50 in the test on MV-4-11 cells (setting [1]) was more than 20 µM; with Mino cells (setting [2]), more than 120 nM; with MM.1S cells (setting [3]) it was 30 to 150 nM.
Turning to `O=C1CCC(N2C(=O)c3cccc(NCc4cnc(-c5ccc(OC(F)(F)F)cc5)o4)c3C2=O)C(=O)N1` (centres unmarked) [Example 15], the IC50 was less than 1 µM in the test with MV-4-11 cells (setting [1]); 0.75 µM in the test with MV-4-11 cells (setting [6]); 60 to 120 nM with Mino cells (setting [2]); 60.5 nM with Mino cells (setting [4]); less than 15 nM in the test with MM.1S cells (setting [3]); 6.4 nM in the test with MM.1S cells (setting [5]).
On to `O=C1CCC(N2C(=O)c3cccc(NCc4cnc(C5CCN(C(=O)C67CC8CC(CC(C8)C6)C7)CC5)o4)c3C2=O)C(=O)N1` (centres unmarked) [Example 3, 4-((2-(1-((3r,5r,7r)-adamantane-1-carbonyl)piperidin-4-yl)oxazol-5-yl)methyl)amino)-2-(2,6-dioxopiperidin-3-yl)isoindoline-1,3-dione], for which the IC50 with MV-4-11 cells (setting [1]) is 1 to 20 µM; in the test with Mino cells (setting [2]), less than 60 nM; in the test on MM.1S cells (setting [3]), less than 15 nM.
In the case of `Cc1nc2cccc(N)c2c(=O)n1C1CCC(=O)NC1=O` (centres unmarked) [CC-122, reference compound], the IC50 with MV-4-11 cells (MV4-11, positive compounds, read-out: IC50 in MV-4-11 acute leukemia cells) was more than 20 µM.
Turning to `O=C1CCC(N2C(=O)c3cccc(NCc4cnc(C5CCN(C(=O)c6ccc(OC(F)(F)F)cc6)CC5)o4)c3C2=O)C(=O)N1` (centres unmarked) [Example 7], the IC50 was 1 to 20 µM with MV-4-11 cells (setting [1]), more than 120 nM in the test on Mino cells (setting [2]) and 15 to 30 nM in the test with MM.1S cells (setting [3]).
For `COc1ccc(-c2ncc(CNc3cccc4c3C(=O)N(C3CCC(=O)NC3=O)C4=O)s2)c(OC)c1` (centres unmarked) [Example 36], in that order: less than 1 µM, more than 120 nM and 15 to 30 nM.
On to `O=C1CCC(N2C(=O)c3cccc(NCc4cnc(-c5ccc(OC6CCOCC6)cc5)o4)c3C2=O)C(=O)N1` (centres unmarked) [Example 53], for which the IC50 in the test with MV-4-11 cells (setting [1]) was less than 1 µM; in the test on Mino cells (setting [2]) it was less than 60 nM; in the test on MM.1S cells (setting [3]) it was less than 15 nM.
For `CC(C)(C)C(=O)N1CCC(c2ncc(CNc3cccc4c3C(=O)N(C3CCC(=O)NC3=O)C4=O)o2)CC1` (centres unmarked) [Example 9], the IC50 was less than 1 µM in the test on MV-4-11 cells (setting [1]); 0.782 µM in the test on MV-4-11 cells (setting [6]); more than 120 nM in the test with Mino cells (setting [2]); 141 nM in the test with Mino cells (setting [4]); less than 15 nM in the test on MM.1S cells (setting [3]); 8.8 nM in the test on MM.1S cells (setting [5]).
For the compound `N#Cc1ccc(C(=O)N2CCC(c3ncc(CNc4cccc5c4C(=O)N(C4CCC(=O)NC4=O)C5=O)o3)CC2)c(F)c1` (centres unmarked) [Example 6, 4-(4-(5-(((2-(2,6-dioxopiperidin-3-yl)-1,3-dioxoisindole-4-yl)amino)methyl)oxazol-2-yl)piperidine-1-carbonyl)-3-fluorobenzonitrile], the IC50 was in the range of 1 to 20 µM in the test on MV-4-11 cells (setting [1]), 60 to 120 nM in the test with Mino cells (setting [2]) and 30 to 150 nM in the test on MM.1S cells (setting [3]).
For `O=C1CCC(N2C(=O)c3cccc(NCc4cnc(-c5cccc(Cl)c5Cl)o4)c3C2=O)C(=O)N1` (centres unmarked) [Example 74, 4-(((2-(2,3-Dichlorophenyl)oxazol-5-yl)methyl)amino)-2-(2,6-Dioxopiperidin-3-yl)isoindolin-1,3-dione] the same measures were 1 to 20 µM, more than 120 nM and less than 15 nM.
For `O=C1CCC(N2C(=O)c3cccc(NCc4cnc(-c5ccc(OC6COC6)cc5)o4)c3C2=O)C(=O)N1` (centres unmarked) [Example 49], in that order: less than 1 µM, less than 60 nM and 15 to 30 nM.
Consider `O=C1CCC(N2C(=O)c3cccc(NCc4cnc(-c5ccc(OC6COC6)cc5)s4)c3C2=O)C(=O)N1` (centres unmarked) [Example 102], for which the IC50 in the test on MV-4-11 cells (setting [1]) lay in the range of 1 to 20 µM; with MM.1S cells (setting [3]) it was 30 to 150 nM.
Consider `O=C1CCC(N2C(=O)c3cccc(NCc4ncc(-c5cccc(C(F)(F)F)c5)o4)c3C2=O)C(=O)N1` (centres unmarked) [Example 61], for which the results for the IC50 with MV-4-11 cells (setting [1]), with Mino cells (setting [2]) and with MM.1S cells (setting [3]) were more than 20 µM, more than 120 nM and 30 to 150 nM, respectively.
For `O=C1CCC(N2C(=O)c3cccc(NCc4cnc(-c5ccc(F)cc5)o4)c3C2=O)C(=O)N1` (centres unmarked) [Example 26], the values for the IC50 in the test on MV-4-11 cells (setting [1]), in the test on Mino cells (setting [2]) and in the test on MM.1S cells (setting [3]) were less than 1 µM, less than 60 nM and less than 15 nM, respectively.
Take `[2H]c1c([2H])c([2H])c(-c2ncc(CNc3cccc4c3C(=O)N(C3CCC(=O)NC3=O)C4=O)s2)c([2H])c1[2H]` (centres unmarked) [Example 46]: the figures for the IC50 in the test on MV-4-11 cells (setting [1]), in the test with Mino cells (setting [2]) and with MM.1S cells (setting [3]) were 1 to 20 µM, more than 120 nM and 15 to 30 nM, respectively.
For `O=C1CCC(N2C(=O)c3cccc(NCc4cnc(-c5ccc(C(F)(F)F)cc5)o4)c3C2=O)C(=O)N1` (centres unmarked) [Example 57], in that order: less than 1 µM, more than 120 nM and less than 15 nM.
In the case of `O=C1CCC(N2C(=O)c3cccc(NCc4cnc(-c5cccc(OC(F)(F)F)c5)o4)c3C2=O)C(=O)N1` (centres unmarked) [Example 55], the IC50 in the test on MV-4-11 cells (setting [1]) is less than 1 µM; with MM.1S cells (setting [3]) it was 15 to 30 nM.
On to `O=C1CCC(N2C(=O)c3cccc(NCc4cnc(-c5ccccc5OC5COC5)o4)c3C2=O)C(=O)N1` (centres unmarked) [Example 101], for which the IC50 in the test with MV-4-11 cells (setting [1]) lay in the range of 1 to 20 µM.
On to `O=C1CCC(N2C(=O)c3cccc(NCc4cnc(-c5cc(Cl)cc(Cl)c5)o4)c3C2=O)C(=O)N1` (centres unmarked) [Example 75, 4-(((2-(3,5-Dichlorophenyl)oxazol-5-yl)methyl)amino)-2-(2,6-Dioxopiperidin-3-yl)isoindolin-1,3-dione], for which the figures for the IC50 in the test with MV-4-11 cells (setting [1]) and in the test on Mino cells (setting [2]) were less than 1 µM and more than 120 nM, respectively.
`O=C1CCC(N2C(=O)c3cccc(NCc4cnc(-c5cccc(F)c5)o4)c3C2=O)C(=O)N1` (centres unmarked) [Example 70, 2-(2,6-Dioxopiperidin-3-yl)-4-(((2-(3-Fluorophenyl)oxazol-5-yl)methyl)amino)isoindolin-1,3-dione]: the IC50 in the test with MV-4-11 cells (setting [1]) was in the range of 1 to 20 µM; in the test with MM.1S cells (setting [3]) it was 15 to 30 nM.
Take `O=C1CCC(N2C(=O)c3cccc(NCc4cnc(-c5cccc(Cl)c5)s4)c3C2=O)C(=O)N1` (centres unmarked) [Example 68, 4-(((2-(3-Chlorophenyl)thiazol-5-yl)methyl)amino)-2-(2,6-Dioxopiperidin-3-yl)isoindolin-1,3-dione]: the IC50 in the test with MV-4-11 cells (setting [1]) is less than 1 µM; with Mino cells (setting [2]) it was more than 120 nM.
In the case of `O=C1CCC(N2C(=O)c3cccc(NCc4cnc(-c5ccccc5OC(F)(F)F)o4)c3C2=O)C(=O)N1` (centres unmarked) [Example 56], the IC50 with MV-4-11 cells (setting [1]) lay within 1 to 20 µM; in the test with MM.1S cells (setting [3]), 30 to 150 nM.
